In PubChem BioAssay (NCI):
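Five compound concentrations were applied to cells in 96-well plates for 48 hours; endpoints were derived by simple linear interpolation of the resulting dose-response curve. Here, GI50 denotes the concentration required for 50% inhibition of growth. TGI marks complete inhibition of growth.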

How the values were obtained:
Test in all cases: NCI tumour cell line growth inhibition, 48 h
HCT-116 colon = test system: HCT-116 colon
HS 578T breast = test system: HS 578T breast
K-562 leukemia = test system: K-562 leukemia
LOX IMVI melanoma = test system: LOX IMVI melanoma
NCI-H23 lung = test system: NCI-H23 lung
OVCAR-5 ovarian = test system: OVCAR-5 ovarian
RXF 393 renal = test system: RXF 393 renal
T-47D breast = test system: T-47D breast
UACC-62 melanoma = test system: UACC-62 melanoma
UO-31 renal = test system: UO-31 renal

Structure (SMILES)	TGI (HCT-116 colon)	TGI (HS 578T breast)	TGI (K-562 leukemia)	TGI (LOX IMVI melanoma)	TGI (NCI-H23 lung)	TGI (OVCAR-5 ovarian)	TGI (RXF 393 renal)	TGI (T-47D breast)	TGI (UACC-62 melanoma)	TGI (UO-31 renal)	GI50 (LOX IMVI melanoma)
CCNc1ccc2c(c1)Cc1ccccc1-2	> 100 µM	> 100 µM	> 100 µM	> 100 µM	> 100 µM	> 100 µM	> 100 µM	> 100 µM	> 100 µM	> 100 µM	
CC[N+](C)(CC)CCC(O)(c1ccccc1)c1ccccc1	> 100 µM	> 100 µM	> 100 µM	> 100 µM	> 100 µM	> 100 µM	> 100 µM	> 100 µM	> 100 µM	> 100 µM	
Cc1cc(C)c(P2C(=C(O[Si](C(C)C)(C(C)C)C(C)C)C(C)(C)C)C2(c2ccccc2)c2ccccc2)c(C)c1 (configuration not stated)	> 100 µM	> 100 µM	> 100 µM	> 100 µM	> 100 µM	> 100 µM	> 100 µM	> 100 µM	> 100 µM	> 100 µM	
CN1CCN(c2c(Cl)cc(Cl)c3[nH]c4ccccc4c(=O)c23)CC1	> 42.6 µM	22.6 µM	> 48.6 µM	> 42.6 µM	27 µM	29.3 µM	25.2 µM	38.5 µM	18.6 µM	17.3 µM	
COc1ccc(N(C)C(=O)N(C)c2ccc([N+](=O)[O-])cc2)cc1	> 100 µM	41.3 µM	> 100 µM	> 100 µM	> 100 µM	> 100 µM	76.2 µM	> 100 µM	> 100 µM	> 100 µM	
COc1cc2nc(-c3ccc4ccccc4c3)[nH]c(=O)c2cc1OC	> 100 µM	> 100 µM	> 100 µM	> 100 µM	> 100 µM	> 100 µM	> 100 µM	> 100 µM	> 100 µM	> 100 µM	
COC1OC(Cc2nnc(C)o2)C(OCc2ccccc2)C(OCc2ccccc2)C1OCc1ccccc1 (configuration not stated)	> 100 µM	> 100 µM	98.5 µM	40.3 µM	56 µM	> 100 µM	48.2 µM	> 100 µM	32.3 µM	> 100 µM	
Cc1ccc(C(=O)O)c(CC2Cc3c(C)cccc3C2=O)c1 (configuration not stated)	> 100 µM	> 100 µM	> 100 µM	> 100 µM	> 100 µM	> 100 µM	> 100 µM	> 100 µM	> 100 µM	> 100 µM	
CCOC(=O)C(NC(=O)N(C1=NCC(C)S1)C1CCCCC1)(OC)C(F)(F)F (configuration not stated)	> 100 µM	> 100 µM	> 100 µM	60.8 µM	> 100 µM	> 100 µM	45.5 µM	> 100 µM	> 100 µM	> 100 µM	
COc1cccc(CC(C)NCC(O)c2ccc(O)c(O)c2)c1 (configuration not stated)	> 100 µM	> 100 µM	> 100 µM	> 100 µM	> 100 µM	47.4 µM	> 100 µM	> 100 µM	> 100 µM	> 100 µM	
C(=C\c1cccc(/C=C/c2ccccn2)n1)/c1ccccn1	> 100 µM	44.3 µM	> 100 µM	> 100 µM	> 100 µM	> 100 µM	> 100 µM	> 100 µM	83.1 µM	> 100 µM	
O=C1CCC2(CCO1)OCCO2	> 100 µM	> 100 µM	> 100 µM	> 100 µM	> 100 µM	> 100 µM	> 100 µM	> 100 µM	> 100 µM	> 100 µM	
c1ccc(CCNCc2ccco2)nc1	> 100 µM	> 100 µM	> 33.6 µM	> 100 µM	> 100 µM	> 100 µM	> 100 µM	> 28.5 µM	> 100 µM	> 100 µM	
CCOC(=O)c1c(N2CCCC2)ncn(-c2ccccc2)c1=S	> 100 µM	> 100 µM	> 100 µM	> 100 µM		> 100 µM	> 100 µM	> 100 µM	> 100 µM	> 100 µM	
Cc1ccncc1.F[B-](F)(F)F.[Pt+2].c1ccc(-c2cccc(-c3ccccn3)n2)nc1	> 100 µM	> 45 µM	> 100 µM	> 88.4 µM	> 88 µM	41.4 µM	38.4 µM	42.9 µM	36.5 µM	> 27.8 µM	1.28 µM
C=C(CCC(C)C1CCC2C3=C(C(=O)CC21C)C1(C)CCC(=O)[C@@H](C)C1CC3=O)C(C)C(=O)O (some centres not stated)	> 100 µM	> 100 µM	35.2 µM	33.8 µM	> 100 µM	> 100 µM	57.4 µM	> 100 µM	> 100 µM	32.4 µM	
CCOP(=O)(OCC)C(Nc1cccc(F)c1)c1ccccc1 (configuration not stated)	> 100 µM	> 100 µM	> 100 µM	> 100 µM	> 100 µM		> 100 µM	> 100 µM	> 100 µM	> 100 µM	
O=[N+]([O-])c1c(Br)cc(Br)c2c1Nc1c(ccc(Cl)c1Cl)S2	19.1 µM	> 100 µM	17.3 µM	8.78 µM	29.6 µM	33.7 µM	35.1 µM	29.9 µM	33.1 µM	20.5 µM	

Structure (SMILES)	TGI (HCT-116 colon)	TGI (HS 578T breast)	TGI (K-562 leukemia)	TGI (LOX IMVI melanoma)	TGI (NCI-H23 lung)	TGI (OVCAR-5 ovarian)	TGI (RXF 393 renal)	TGI (T-47D breast)	TGI (UACC-62 melanoma)	TGI (UO-31 renal)	GI50 (LOX IMVI melanoma)
COc1cc2c(cc1OCCCC(=O)Nc1cc(C(=O)Nc3cc(C(=O)Nc4cc(C(=O)NCCCN(C)C)n(C)n4)n(C)n3)n(C)n1)N=CC1CCCN1C2=O (configuration not stated)	> 100 µM	79.7 µM	> 100 µM	> 100 µM	66.5 µM	72.2 µM	43.2 µM	> 100 µM	40.6 µM	16.6 µM	
CCOC(=O)c1c(CN2CCNCC2)nc2ccccc2c1-c1ccccc1	23.7 µM	35.9 µM	27.2 µM	31.6 µM	36 µM	31.1 µM	13.8 µM	30 µM	28.2 µM	21.7 µM	
Cc1nc2c3c(ncn2n1)Oc1c(c(-c2ccccc2)nn1-c1ccccc1)C3c1ccc(Cl)cc1 (configuration not stated)	> 100 µM	74.1 µM	> 100 µM	> 100 µM	> 100 µM	> 100 µM	> 100 µM	> 100 µM	> 100 µM	> 100 µM	
Clc1ccc(Cc2nc3ccccc3nc2-c2cccc(Br)c2)cc1	3.5 µM	3.57 µM	8.46 µM	3.73 µM	26.6 µM	16.6 µM	6.26 µM	4.54 µM	4.01 µM	3.38 µM	
COc1cc(/C=C/C(=O)c2c(=O)o[nH][n+]2-c2ccccc2)ccc1[O-]	5.67 µM	9.6 µM	8.61 µM	6.75 µM	8.78 µM	25.6 µM	4.65 µM	11.7 µM	13.7 µM	10.1 µM	
Cc1cccc2c1[nH]c1[nH]c(=O)[nH]c(=O)c12	> 100 µM	> 100 µM	> 100 µM	> 100 µM	> 100 µM	> 100 µM	> 100 µM	> 100 µM	> 100 µM	> 100 µM	
CC[N+]1(C)CCC(O)(/C=C/c2ccc(OC)cc2)C(C(=O)/C=C/c2ccc(OC)cc2)C1 (configuration not stated)	> 48.3 µM	> 85 µM	4.5 µM	> 22.5 µM	42.6 µM	44.1 µM	28.4 µM	24.6 µM	43.8 µM	26.6 µM	
Nc1ncnc2c1ncn2C1CCC(COS(N)(=O)=O)C1 (configuration not stated)	> 100 µM	> 100 µM	> 100 µM	> 100 µM	> 100 µM	> 100 µM	> 100 µM	> 100 µM	> 100 µM	> 100 µM	
COc1nc2c(c(=O)n1C)N[C@H]1[C@H](OC(C)=O)[C@@H](OC(C)=O)CO[C@H]1N2	> 100 µM	> 100 µM	> 100 µM	> 100 µM		> 100 µM	> 100 µM	> 100 µM	> 100 µM	> 100 µM	
CC(=O)O[C@@H]1C[C@@]23C[C@@]24CC[C@H](OC2OCC(O)C(O)C2O)C(C)(C)[C@@H]4CC=C3[C@]2(C)C[C@@H]3OC4(C[C@@H](C)[C@@H]3[C@@]12C)OC(O)[C@@]1(C)O[C@@H]41 (some centres not stated)	49.7 µM	> 100 µM	> 100 µM	57 µM	> 100 µM	> 100 µM	37.1 µM	97.7 µM	54.8 µM	> 100 µM	
O=C1C=CC(=O)C(CNc2ccc(C(=O)OC34CC5CC(CC(C5)C3)C4)cc2)=C1	22.5 µM	10.9 µM	> 49.3 µM	15.2 µM	25.4 µM	39.2 µM	4.51 µM	6.88 µM	16.5 µM	16 µM	
Nc1nc(-c2ccccc2N=NN2CCCC2)nc2ccccc12	2.55 µM	18 µM	10.2 µM	3.77 µM	8.06 µM	4.66 µM	20.4 µM	19.4 µM	3.77 µM	3.43 µM	
Cc1ccc(C2=NOC(=O)[C@@H]3CCCC[C@@H]23)cc1	> 100 µM	> 100 µM	> 100 µM	> 100 µM	> 100 µM	> 100 µM	> 100 µM	> 100 µM	> 100 µM	> 100 µM	
O=C1NC(=O)/C(=C/c2ccc(S(=O)(=O)N/N=C/c3ccc(Cl)cc3)cc2)N1	> 100 µM	> 100 µM	> 100 µM	> 100 µM	> 100 µM	> 100 µM	> 100 µM	> 100 µM	> 100 µM	> 100 µM	
Cc1cc(=O)n2nc(SCc3ccccc3)sc2n1	> 100 µM	> 100 µM	> 100 µM	> 100 µM	> 100 µM	> 100 µM	> 100 µM	> 100 µM	> 100 µM	67.5 µM	
CCCCc1cc2c(C)cc(=O)oc2c(O)c1O	96.1 µM	59.5 µM	73.5 µM	61 µM	> 100 µM	> 100 µM	59.6 µM	82.3 µM		54.6 µM	
CN(C)/N=C/c1cn(C)c(=O)n(C)c1=O	> 100 µM	> 100 µM	> 100 µM	> 100 µM	> 100 µM	> 100 µM	> 100 µM	> 100 µM	> 100 µM	> 100 µM	
